Data reported in PMC8016788 (Clinical Pharmacokinetics, 2021).
Where two headings read alike, the source gives them in different places.

Key:
[1] = test system: patients with non-diabetic kidney disease; details: primary result of the DIAMOND trial; cited from earlier work
[2] = patients with type 2 diabetes and chronic kidney disease; model of van der Walt et al.; cited from earlier work
[3] = 10 mg
clinical = details: human, plasma, oral, 10 mg

Predicted median AUC0–inf ([3]; participants of 50 kg with mGFR 50 mL/min/1.73 m^2): 1100.3 (1016.1–1204.1) ng h/mL
Predicted median AUC0–inf ([3]; participants of 70 kg with mGFR 15 mL/min/1.73 m^2): 1566.1 (1348.4–1855.4) ng h/mL
Predicted median AUC0–inf ([3]; participants of 70 kg with mGFR 90 mL/min/1.73 m^2): 539.2 (483.5–600.4) ng h/mL
Predicted median AUC0–inf ([3]; participants of 150 kg with mGFR 50 mL/min/1.73 m^2): 483.0 (445.5–527.8) ng h/mL
AUC(0-inf) (clinical): 741 ng·h/mL
Vd/F (clinical): 44.9 L
Structure (SMILES): CCOc1ccc(Cc2cc([C@@H]3O[C@H](CO)[C@@H](O)[C@H](O)[C@H]3O)ccc2Cl)cc1 [dapagliflozin]
Effect on proteinuria in the DIAMOND trial [1]: did not decrease proteinuria
Apparent clearance [2]: approximately 10.5 L/h
